These results are taken from patent US20050090433A1 (priority 2002, published 2005).

One series concerns D-Ala-D-Ala. Briefly: ITC of binding to dipeptide. To be noted: absence of serum proteins. From the text:
(§1) Trans. R. Soc. Lond. Ser. A-Math. Phys. Eng. […] Wiley, (1998) p 103-111; and Cooper, A., Curr. Opin. Chem. Biol. (1999) 3, 557-563.

For the next series, the system named is Lys-D-Ala-D-Lactate. Briefly: ITC of binding to Lys-D-Ala-D-Lactate. To be noted: absence of serum proteins.
From the text: as §1

Series [1] relates to N,N′-diacetyl-Lys-D-Ala-D-Ala. Kind of series: ITC of binding to tri-peptide, with and without HSA.
Experimental: Antibiotics and peptides were dissolved in aqueous buffer (20 mM Na phosphate, 150 mM NaCl, pH 7.4) containing HSA, with gentle stirring immediately before each experiment. Peptide concentrations were determined by weight. […] HSA concentrations were determined by UV absorbance (HSA, ε280=37,700; A280^1%=5.44). Spectra were recorded at room temperature in 1 cm pathlength quartz cuvettes using Shimadzu UV-160A or UV-1601 spectrophotometers, with samples diluted quantitatively with buffer if necessary to give absorbance in the 0.1-1 A range.
Isothermal titration calorimetry was performed using a Microcal VP-ITC instrument at 25° C. and 37° C. using standard operating procedures. […] Samples were degassed gently prior to loading to prevent bubble formation in the calorimeter cell.
Series [2] in a line: Multimer to monomer population by electrospray ion mass spectroscopy. To be noted: dalbavancin 0.1 mg/ml in 8:2 water:isopropanol; teicoplanin 50 and 100 μg/mL in water. Type of series: physicochemical.
Experimental: Experiments were performed using an Applied Biosystem API III+mass spectrometer equipped with a TurboIonSpray source, a Triple Quadrupole analyzer, operating in positive ion mode.
The mass spectra were obtained in electrospray positive mode on a Finnigan LCQ^Deca ion trap instrument previously tuned and calibrated in electrospray mode using Ultramark 1621, caffeine and MRFA (L-metionyl-arginyl-phenilalanyl-arginine).
The mass spectra were obtained in electrospray positive mode on a Finnigan LCQ^Deca ion trap instrument previous tuned and calibrated in electrospray mode using Ultramark 1621, caffeine and MRFA (L-metionyl-arginyl-phenilalanyl-arginine).
Another series deals with Human albumin (Homo sapiens, UniProt P02768). Kind of series: Protein binding by isothermal titration microcalorimetry. To be noted: for Calculated percent Binding, Human albumin: albumin 6×10^−4 M assumed.
Another series concerns human α-glycoprotein. Described as above. To be noted: protein […]10^−5 M assumed.
Series [3] addresses N,N′-diacetyl-Lys-D-Ala-D-Ala. Briefly: ITC, 10 C, 0 uM HSA. (Isothermal titration calorimetry measures the heat released or taken up as one component is titrated into another.)
The target of series [4] is N,N′-diacetyl-Lys-D-Ala-D-Ala. Briefly: ITC, 25 C, 0 uM HSA.
For series [5], the target named is N,N′-diacetyl-Lys-D-Ala-D-Ala. Briefly: ITC, 25 C, with 513 uM HSA.

Values joined by “and” are separate entries in the source; they are usually repeats but may differ in a detail not shown here. Equal values may be shown once.

Human albumin, sequence (P02768 25-609): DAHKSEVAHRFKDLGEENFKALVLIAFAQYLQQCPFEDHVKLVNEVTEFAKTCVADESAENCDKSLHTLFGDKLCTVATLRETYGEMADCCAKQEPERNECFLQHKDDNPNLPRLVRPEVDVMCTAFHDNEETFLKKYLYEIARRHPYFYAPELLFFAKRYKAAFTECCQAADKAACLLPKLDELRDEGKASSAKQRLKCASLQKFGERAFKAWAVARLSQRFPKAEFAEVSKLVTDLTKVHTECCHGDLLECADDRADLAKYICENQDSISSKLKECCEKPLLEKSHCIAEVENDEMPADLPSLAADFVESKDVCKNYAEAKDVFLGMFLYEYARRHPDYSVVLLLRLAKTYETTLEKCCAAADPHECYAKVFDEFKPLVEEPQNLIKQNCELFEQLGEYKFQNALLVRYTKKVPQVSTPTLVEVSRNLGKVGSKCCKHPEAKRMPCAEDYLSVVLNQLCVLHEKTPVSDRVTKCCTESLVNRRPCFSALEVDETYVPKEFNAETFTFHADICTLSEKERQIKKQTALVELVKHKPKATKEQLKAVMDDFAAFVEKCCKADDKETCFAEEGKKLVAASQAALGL
Experimental for Human albumin: (§2) Integrated heat effects, after correction for heats of dilution, were analyzed by non-linear regression using a simple single-site binding model with the standard Microcal ORIGIN software package. Raw data (μcal/sec) for each injection were integrated to give the total heat effect per addition, then divided by amount of injectant to give kcal/mole of injectant. The same integration was applied for control dilution effects, and this was subtracted from the actual titration data. This provided a differential of the binding curve in which the extent of binding is proportional to the total heat liberated (or absorbed). This was then analyzed by non-linear regression methods in terms of various standard binding models.
Experimental for human α-glycoprotein: as §2

With `CN[C@H](CC(C)C)C(=O)N[C@H]1C(=O)N[C@@H](CC(N)=O)C(=O)N[C@H]2C(=O)N[C@H]3C(=O)N[C@H](C(=O)N[C@H](C(=O)O)c4cc(O)cc(O)c4-c4cc3ccc4O)[C@H](O)c3ccc(c(Cl)c3)Oc3cc2cc(c3O[C@@H]2O[C@H](CO)[C@@H](O)[C@H](O)[C@H]2O[C@H]2C[C@](C)(N)[C@H](O)[C@H](C)O2)Oc2ccc(cc2Cl)[C@H]1O` [Vancomycin], in the series on D-Ala-D-Ala, the “Binding to dipeptide (D-Ala-D-Ala)” value is reported as “no evidence of binding”. In the series on Lys-D-Ala-D-Lactate, the “Binding to Lys-D-Ala-D-Lactate” value is “no evidence of binding”. Further, the Kass was 6.90E+05 L M^−1 in [1] (10 °C, [HSA] 0 μM); 3.40E+05 L M^−1 and 3.60E+05 L M^−1 in [1] (25 °C, [HSA] 0 μM); 2.90E+05 L M^−1 in [1] (25 °C, [HSA] 513 μM). In series [1] (control ITC experiments), the “Binding to tri-peptide in the presence of HSA vs absence” value is given as “comparable to those seen in the absence of HSA”.
Take Teicoplanin: the “Multimers in solution (ESI-MS)” value in series [2] is listed as “does not show multimeric complexes in solution”. Further, the “Apparent binding affinity Ka, Human albumin” value at Human albumin (25° C., pH 7.4, ± SD of fit) is on record as 0.96 (±0.08) ×10^5 M^−1. Moreover, the “Calculated percent Binding, Human albumin” value at Human albumin (antibiotic 1 μM) is reported as 98.3%; at Human albumin (antibiotic 10 μM), 98.3%; on Human albumin (antibiotic 100 μM), 98.0%. Besides, the “Calculated percent Binding, Human α-glycoprotein” value was 9.6% with human α-glycoprotein (antibiotic 1 μM), 9.1% in the series on human α-glycoprotein (antibiotic 10 μM) and 6.0% in the series with human α-glycoprotein (antibiotic 100 μM).
Broadly, the Kd is a measure of binding affinity in units of concentration. Read a low Kd as tighter binding. Regarding vancomycin hydrochloride (peptide), the Kd is 1450 nM in series [3]; 2940 nM and 2780 nM in series [4]; 3450 nM in series [5]. The ΔH in [3] was -9.49 kcal/mol; in series [4] it was -10.7 kcal/mol and -12.9 kcal/mol; in series [5], -10.1 kcal/mol. For the same compound, the ΔS in series [3] is -6.8 eu; in [4], -10.6 eu and -17.8 eu; in series [5], -8.8 eu.
